Assay results taken from patent publication US10597388B2, “Pyridazinone herbicides” (FMC CORPORATION, priority 2014, dated 2020).

What was measured:
Format in all cases: in vivo
[1] = tested on: wheat (winter wheat, Triticum aestivum); assay: Test C greenhouse herbicide test, pre- and postemergence
Procedure, shortened: (§1)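 Visual 0–100 injury score (100 = complete control) taken against untreated controls after 13–15 d in greenhouse. Test chemicals, formulated in solvent plus surfactant, applied preemergence to seeds in loam–sand soil or postemergence to 1- to 4-leaf plants (2–18 cm).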

[2] = tested on: soybean (Glycine max); assay: as above
Procedure, shortened: as §1

[3] = tested on: chickweed (common chickweed, Stellaria media); assay: Test C greenhouse herbicide test, postemergence
Procedure, shortened: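 Test chemicals were applied postemergence to greenhouse plants at the 1- to 4-leaf stage (2–18 cm tall) growing in peat/vermiculite medium. After 13–15 d, injury was rated visually against untreated controls on a 0–100 scale (0 = no effect, 100 = complete control).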

[4] = tested on: waterhemp_RES2 (ALS & HPPD resistant common waterhemp, Amaranthus rudis); assay: Test E greenhouse herbicide test, postemergence
Procedure, shortened: (§2)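 Postemergence spray of formulated test chemicals onto resistant waterhemp at 1- to 4-leaf stage (2–18 cm tall), grown in peat/vermiculite potting medium. Kept in greenhouse 14 to 21 d, then visually rated against untreated controls on a 0–100 scale (0 no effect, 100 complete control).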

[5] = tested on: waterhemp_RES1 (ALS & Triazine resistant common waterhemp, Amaranthus rudis); assay: Test E greenhouse herbicide test, postemergence
Procedure, shortened: as §2

[6] = tested on: sedge, umbrella (small-flower umbrella sedge, Cyperus difformis); assay: Test B flooded paddy test; settings: 250 g ai/ha, Flood; visual rating on scale of 0 to 100 where 0 is no effect and 100 is complete control; 13 to 15 d after treatment
Procedure, shortened: (§3)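 Ratings use a 0-100 visual scale, where 100 is complete control, and compare treated plants with controls after 13 to 15 d of greenhouse growth. Compound went straight into paddy water kept 3 cm over the soil surface, applied to seedlings at the 2-leaf stage.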

[7] = tested on: ducksalad (Heteranthera limosa); assay: Test B flooded paddy test; settings: 250 g ai/ha, Flood; visual rating on scale of 0 to 100 where 0 is no effect and 100 is complete control; 13 to 15 d after treatment
Procedure, shortened: as §3

[8] = tested on: barnyardgrass (Echinochloa crus-galli); assay: Test B flooded paddy test; settings: 250 g ai/ha, Flood; visual rating on scale of 0 to 100 where 0 is no effect and 100 is complete control; 13 to 15 d after treatment
Procedure, shortened: as §3

[9] = tested on: rice (Oryza sativa); assay: Test B flooded paddy test; settings: 250 g ai/ha, Flood; visual rating on scale of 0 to 100 where 0 is no effect and 100 is complete control; 13 to 15 d after treatment
Procedure, shortened: as §3

[10] = Postemergence, 125 g ai/ha, scale 0 to 100, 0 is no effect, 100 is complete control
[11] = Postemergence, 250 g ai/ha, scale 0 to 100, 0 no effect, 100 complete control, 13 to 15 d
[12] = Preemergence, 31 g ai/ha, scale 0 to 100, 0 is no effect, 100 is complete control
[13] = Preemergence, 62 g ai/ha, scale 0 to 100, 0 is no effect, 100 is complete control
[14] = Preemergence, 125 g ai/ha, scale 0 to 100, 0 is no effect, 100 is complete control
[15] = Preemergence, 250 g ai/ha, scale 0 to 100 (0 no effect, 100 complete control)
[16] = postemergence, 62 g ai/ha, scale 0 to 100, 0 no effect, 100 complete control
[17] = 31 g ai/ha, visual, scale 0 no effect to 100 complete control
[18] = 125 g ai/ha, scale 0 to 100 (0 no effect, 100 complete control)
[19] = 250 g ai/ha, scale 0 to 100 (0 no effect, 100 complete control)
[20] = Postemergence, 31 g ai/ha, scale 0 to 100 (0 no effect, 100 complete control)
[21] = Postemergence, 62 g ai/ha, 0 to 100 scale (0 no effect, 100 complete control)
[22] = Postemergence, 250 g ai/ha, scale 0 to 100, 0 is no effect, 100 is complete control
[23] = postemergence, 125 g ai/ha, scale 0 to 100, 0 no effect, 100 complete control

In the case of `Cc1cc(C)c2sc(C)c(-c3c(OC(=O)OCCCl)c(C)nn(C)c3=O)c2c1` [Compound 85], the “Plant response rating, Wheat” value [1, 10] is reported as 0, the “Plant response rating, Wheat” value [1, 11] is reported as 0 and the “Plant response rating, Wheat” value [1, 12] is reported as 0. For the same compound, the “Plant response rating, Wheat” value [1, 13] was 0, the “Plant response rating, Wheat” value [1, 14] was 0 and the “Wheat plant response rating” value [1, 15] was 5. The “Wheat plant response rating” value [1, 16] was 0, the “Plant response rating, Soybean” value [2, 10] was 0 and the “Plant response rating, Soybean” value [2, 11] was 15. For the same compound, the “Plant response rating, Soybean” value [2, 12] was 0, the “Plant response rating, Soybean” value [2, 13] was 0 and the “Plant response rating, Soybean” value [2, 14] was 0. For the same compound, the “Soybean plant response rating” value [2, 15] was 0, the “Soybean plant response rating” value [2, 16] was 0 and the “Chickweed plant response rating” value ([3]; Postemergence, 31 g ai/ha, 0 to 100 scale (0 no effect, 100 complete control)) was 90. For the same compound, the “Plant response rating, Chickweed” value [3, 10] was 95, the “Plant response rating, Chickweed” value [3, 11] was 100 and the “Chickweed plant response rating” value [3, 16] was 95. For the same compound, the “Plant response rating, Waterhemp_RES2” value [4, 17] was 40, the “Plant response rating, Waterhemp_RES2” value [4, 18] was 40 and the “Plant response rating, Waterhemp_RES2” value [4, 19] was 50. The “Plant response rating, Waterhemp_RES1” value [5, 17] was 80, the “Plant response rating, Waterhemp_RES1” value [5, 18] was 75 and the “Plant response rating, Waterhemp_RES1” value [5, 19] was 80. For the same compound, the “Plant response rating, Sedge, Umbrella” value [6] was 80, the “Plant response rating, Ducksalad” value [7] was 50 and the “Plant response rating, Barnyardgrass” value [8] was 50. For the same compound, the “Plant response rating, Rice” value [9] was 50.

With `CSCC(=O)Oc1c(C)nn(C)c(=O)c1-c1cccc2ccccc12` [Compound 171] the “Plant response rating, Wheat” value [1, 20] was 0, the “Wheat plant response rating” value [1, 21] was 15 and the “Plant response rating, Wheat” value [1, 22] was 20. The “Plant response rating, Wheat” value [1, 12] was 0, the “Plant response rating, Wheat” value [1, 13] was 5 and the “Plant response rating, Wheat” value [1, 14] was 45. For the same compound, the “Wheat plant response rating” value [1, 23] was 30, the “Plant response rating, Soybean” value [2, 20] was 10 and the “Soybean plant response rating” value [2, 21] was 30. The “Plant response rating, Soybean” value [2, 22] was 50, the “Plant response rating, Soybean” value [2, 13] was 0 and the “Plant response rating, Soybean” value [2, 14] was 55. The “Soybean plant response rating” value [2, 23] was 60, the “Plant response rating, Chickweed” value [3, 20] was 90 and the “Chickweed plant response rating” value [3, 21] was 90. For the same compound, the “Plant response rating, Chickweed” value [3, 22] was 95, the “Chickweed plant response rating” value [3, 23] was 90 and the “Plant response rating, Waterhemp_RES2” value [4, 17] was 15. The “Plant response rating, Waterhemp_RES2” value [4, 18] was 40, the “Plant response rating, Waterhemp_RES2” value [4, 19] was 60 and the “Plant response rating, Waterhemp_RES1” value [5, 17] was 50. The “Plant response rating, Waterhemp_RES1” value [5, 18] was 75, the “Plant response rating, Waterhemp_RES1” value [5, 19] was 90 and the “Plant response rating, Sedge, Umbrella” value [6] was 60. For the same compound, the “Plant response rating, Ducksalad” value [7] was 0, the “Plant response rating, Barnyardgrass” value [8] was 0 and the “Plant response rating, Rice” value [9] was 0.
